# Patent US20230115176A1 (Ra Pharmaceuticals, Inc., priority 2019, published 2023)
# Molecular target: T1, Human C5 (Homo sapiens, UniProt P01031)
# T1 construct: purchased Complement Technology
# Experiment: Red blood cell (RBC) hemolysis assay, luminescent (Example 28, Table 32)
# Format: cell-based
# Settings: sheep EA cells, 1.5% C5-depleted human serum, 0.5 nM human C5, 1 hour at 37° C., luminescence (Table 32)
# Procedure: Sheep red blood cells coated with rabbit anti-sheep erythrocyte antiserum (EA cells; Complement Technology, Tyler, Tex.) were used to assay compound inhibitory activity of the classical complement activation pathway. Briefly, the EA cells were washed once and resuspended in the same volume of GVB++ buffer (Complement Technology, Tyler, Tex.). 25 μL of EA cells were then distributed into each well of 384-well tissue culture plates using Apricot iPipette Pro (Apricot Designs; Covina, Calif.). Compounds were tested in 10 points of final concentrations ranging from 16.67 μM to 1.65 μM in a 6-fold titration series. Compounds were dispensed into 384-well plates from 6.7 mM and 3.35 μM DMSO working stocks using an HP Digital Dispenser (HP; Corvallis, Oreg.). The reactions also contained 1.5% (v/v) C5-depleted human serum (Complement Technology). Hemolysis was induced by addition of human C5 (Complement Technology) at a concentration of 0.5 nM and plates were incubated for 1 hour at 37° C. in a cell culture incubator. The extent of hemolysis was measured by ability of released hemoglobin to catalyze luminol in the presence of hydrogen peroxide. Luminescence was then measured using a plate reader. Luminescence measurements were used to prepare a dose-response curve. From the curve, the half maximal inhibitory concentration (IC50) for each compound was determined, where the IC50 represents the concentration of each compound needed to reduce red blood cell hemolysis by half.
# T1 sequence (P01031 19-1676): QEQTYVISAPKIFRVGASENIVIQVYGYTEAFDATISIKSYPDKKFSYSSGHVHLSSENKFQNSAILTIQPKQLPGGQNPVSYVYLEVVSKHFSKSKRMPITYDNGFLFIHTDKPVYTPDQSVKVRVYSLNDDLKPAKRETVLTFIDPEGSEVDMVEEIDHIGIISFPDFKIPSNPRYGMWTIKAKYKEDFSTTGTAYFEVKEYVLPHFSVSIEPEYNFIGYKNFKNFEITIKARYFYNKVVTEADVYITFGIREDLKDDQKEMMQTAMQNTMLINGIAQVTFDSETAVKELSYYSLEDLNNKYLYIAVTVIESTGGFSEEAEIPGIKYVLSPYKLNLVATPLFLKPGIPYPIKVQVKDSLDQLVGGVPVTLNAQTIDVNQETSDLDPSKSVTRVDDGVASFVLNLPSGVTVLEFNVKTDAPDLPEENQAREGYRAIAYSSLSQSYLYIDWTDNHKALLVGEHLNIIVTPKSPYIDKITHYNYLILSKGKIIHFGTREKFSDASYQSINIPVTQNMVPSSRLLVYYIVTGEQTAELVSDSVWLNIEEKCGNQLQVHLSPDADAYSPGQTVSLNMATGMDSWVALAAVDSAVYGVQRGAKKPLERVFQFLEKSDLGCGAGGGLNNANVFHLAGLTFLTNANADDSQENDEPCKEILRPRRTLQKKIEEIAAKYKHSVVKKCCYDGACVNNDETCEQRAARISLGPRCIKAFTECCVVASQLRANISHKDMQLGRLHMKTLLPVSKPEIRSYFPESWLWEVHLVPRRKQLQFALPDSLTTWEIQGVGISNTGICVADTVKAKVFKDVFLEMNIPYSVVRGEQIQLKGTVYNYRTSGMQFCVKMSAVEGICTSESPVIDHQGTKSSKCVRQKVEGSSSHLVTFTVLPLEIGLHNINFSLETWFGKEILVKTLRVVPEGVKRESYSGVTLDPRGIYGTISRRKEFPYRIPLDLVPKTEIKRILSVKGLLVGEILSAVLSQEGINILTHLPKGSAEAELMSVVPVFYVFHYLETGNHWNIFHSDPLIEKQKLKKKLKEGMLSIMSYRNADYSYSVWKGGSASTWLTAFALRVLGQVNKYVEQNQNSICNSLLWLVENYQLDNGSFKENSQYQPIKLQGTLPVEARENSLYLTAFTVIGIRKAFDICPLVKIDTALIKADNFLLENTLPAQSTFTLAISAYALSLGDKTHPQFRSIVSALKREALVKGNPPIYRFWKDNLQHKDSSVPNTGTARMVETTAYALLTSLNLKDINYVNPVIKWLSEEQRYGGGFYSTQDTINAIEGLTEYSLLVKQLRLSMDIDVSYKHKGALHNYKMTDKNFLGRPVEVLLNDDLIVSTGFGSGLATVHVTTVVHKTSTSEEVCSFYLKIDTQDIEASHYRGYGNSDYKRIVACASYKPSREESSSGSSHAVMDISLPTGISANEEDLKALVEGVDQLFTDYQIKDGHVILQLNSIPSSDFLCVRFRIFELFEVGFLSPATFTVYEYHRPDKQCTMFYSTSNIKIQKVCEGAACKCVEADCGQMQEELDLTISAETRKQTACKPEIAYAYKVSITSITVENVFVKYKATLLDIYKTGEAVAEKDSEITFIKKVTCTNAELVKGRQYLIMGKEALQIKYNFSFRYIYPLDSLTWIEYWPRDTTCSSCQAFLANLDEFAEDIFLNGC
row,Compound,IC50 [nM]
1,COc1cc(CC(=O)N2CCNC(=O)C2)ccc1CN1C(=O)N(c2ccc(OC)c(OCCCC3CC3)c2)CC[C@@H]1C [SC0118],1.4
2,COc1cc(CC(=O)N(C)[C@@H]2CCNC2)ccc1CN1C(=O)N(c2ccc(OC)c(OCCCC3CC3)c2)CC[C@@H]1C [SC0121],1.5
3,CCCCCOc1cc(N2CC[C@H](C)N(Cc3ccnc4c3c(Cl)cn4CC(=O)N(C)OC)C2=O)ccc1OC [SC0124],1.6
4,CCN1CC[C@@H](NC(=O)Cc2ccc(CN3C(=O)N(c4ccc(OC)c(OCCCC5CC5)c4)CC[C@@H]3C)c(OC)c2)C1 [SC0126],1.6
5,CCCCCOc1cc(N2CC[C@H](C)N(Cc3ccnc4c3c(Cl)cn4CC(=O)N3CC[C@H](N(C)C)C3)C2=O)ccc1OC [SC0129],1.7
6,COc1cc(CC(=O)N[C@@H]2CNC[C@@H]2F)ccc1CN1C(=O)N(c2ccc(OC)c(OCCCC3CC3)c2)CC[C@@H]1C [SC0130],1.7
7,CCCCCOc1cc(N2CC[C@H](C)N(Cc3ccnc4c3c(Cl)cn4CCOCCOCCOC)C2=O)ccc1OC [SC0131],1.7
8,CCCCCOc1cc(N2CC[C@H](C)N(Cc3cccc4c3c(Cl)c(C)n4CC(=O)N(C)C)C2=O)ccc1OC [SC0132],1.7
9,CCCCCOc1cc(N2CC[C@H](C)N(Cc3ccnc4c3c(Cl)cn4CC(=O)N3CC(O)(C(F)(F)F)C3)C2=O)ccc1OC [SC0133],1.7
10,COc1cc(CC(=O)N(C)C)ccc1CN1C(=O)N(c2ccc(OC)c(OCCCC3CC3)c2)CC[C@@H]1C [SC0135],1.8
11,COc1cc(CC(=O)N[C@@H]2CN(CCO)C[C@@H]2F)ccc1CN1C(=O)N(c2ccc(OC)c(OCCCC3CC3)c2)CC[C@@H]1C [SC0136],1.8
12,COc1cc(Cc2cnccn2)ccc1CN1C(=O)N(c2ccc(OC)c(OCCCC3CC3)c2)CC[C@@H]1C [SC0138],1.8
13,COc1cc(CC(=O)N2CCOCC2)ccc1CN1C(=O)N(c2ccc(OC)c(OCCCC3CC3)c2)CC[C@@H]1C [SC0139],1.9
14,COc1cc(CC(=O)N2CC[C@@H](N(C)C)C2)ccc1CN1C(=O)N(c2ccc(OC)c(OCCCC3CC3)c2)CC[C@@H]1C [SC0140],2.1
15,CCN1CC[C@H](NC(=O)Cc2ccc(CN3C(=O)N(c4ccc(OC)c(OCCCC5CC5)c4)CC[C@@H]3C)c(OC)c2)C1 [SC0141],2.1
16,COc1cc(CC(=O)N2CCOC(CN(C)C)C2)ccc1CN1C(=O)N(c2ccc(OC)c(OCCCC3CC3)c2)CC[C@@H]1C (stereo partly drawn) [SC0142],2.1
17,CCCCCOc1cc(N2CC[C@H](C)N(Cc3ccnc4c3c(Cl)cn4CC(=O)N[C@H]3CCNC3)C2=O)ccc1OC [SC0143],2.1
18,COc1ccc(N2CC[C@H](C)N(Cc3cccc4c3c(Cl)cn4CC(=O)N(C)C)C2=O)cc1OCCCCC1CC1 [SC0145],2.1
19,CCCCCOc1cc(N2CC[C@H](C)N(Cc3ccnc4c3c(Cl)cn4CCOCCOC)C2=O)ccc1OC [SC0150],2.2
20,CCCCCOc1cc(N2CC[C@H](C)N(Cc3ccnc4c3c(Cl)cn4C3COC3)C2=O)ccc1OC [SC0151],2.2
21,COc1cc(CC(=O)N[C@H]2CNC[C@H]2F)ccc1CN1C(=O)N(c2ccc(OC)c(OCCCC3CC3)c2)CC[C@@H]1C [SC0152],2.3
22,CCCCCOc1cc(N2CC[C@H](C)N(Cc3ccc(CC(=O)N4CCOC(CN(C)C)C4)cc3OC)C2=O)ccc1OC (stereo partly drawn) [SC0153],2.3
23,COc1cc(Cc2ncccn2)ccc1CN1C(=O)N(c2ccc(OC)c(OCCCC3CC3)c2)CC[C@@H]1C [SC0157],2.6
24,COc1cc(CC(=O)N[C@H]2CN(C(=O)OC(C)(C)C)C[C@H]2F)ccc1CN1C(=O)N(c2ccc(OC)c(OCCCC3CC3)c2)CC[C@@H]1C [SC0160],2.7

row,Compound,IC50 [nM]
1,COc1cc(CC(=O)N(C)[C@H]2CCNC2)ccc1CN1C(=O)N(c2ccc(OC)c(OCCCC3CC3)c2)CC[C@@H]1C [SC0161],2.8
2,COc1cc(CC(=O)N(C)[C@H]2CCN(CCF)C2)ccc1CN1C(=O)N(c2ccc(OC)c(OCCCC3CC3)c2)CC[C@@H]1C [SC0165],3
3,COc1cc(CC(=O)N[C@@H]2CCNC2)ccc1CN1C(=O)N(c2ccc(OC)c(OCCCC3CC3)c2)CC[C@@H]1C [SC0166],3.1
4,CCCCCOc1cc(N2CC[C@H](C)N(Cc3ccc(CC(=O)N(C)C)cc3OC)C2=O)ccc1OC [SC0173],4.2
5,CCCCCOc1cc(N2CC[C@H](C)N(Cc3ccnc4c3c(Cl)cn4CC(=O)N(C)C)C2=O)c(F)cc1OC [SC0175],4.4
6,CCCCCOc1cc(N2C[C@H](CO)CN(Cc3ccc(CC(=O)N(C)C)cc3OC)C2=O)ccc1OC [SC0176],4.5
7,COc1cc(CCO)ccc1CN1C(=O)N(c2ccc(OC)c(OCCCC3CC3)c2)CC[C@@H]1C [SC0180],4.9
8,CCCCCOc1cc(N2CC[C@H](C)N(Cc3cccc4c3c(Cl)c(Cl)n4CC(=O)N(C)C)C2=O)ccc1OC [SC0181],5.1
9,COc1cc(CCN2CCOCC2)ccc1CN1C(=O)N(c2ccc(OC)c(OCCCC3CC3)c2)CC[C@@H]1C [SC0182],5.2
10,COc1cc(CC(=O)N[C@@H]2CN(C(=O)OC(C)(C)C)C[C@@H]2F)ccc1CN1C(=O)N(c2ccc(OC)c(OCCCC3CC3)c2)CC[C@@H]1C [SC0185],5.7
11,COc1cc(CC(=O)N[C@@H]2CCN(C(=O)OC(C)(C)C)C2)ccc1CN1C(=O)N(c2ccc(OC)c(OCCCC3CC3)c2)CC[C@@H]1C [SC0187],6.1
12,COc1cc(CC(=O)N(C)[C@H]2CCN(C(=O)OC(C)(C)C)C2)ccc1CN1C(=O)N(c2ccc(OC)c(OCCCC3CC3)c2)CC[C@@H]1C [SC0188],6.4
13,CCCCCOc1cc(N2CC(CO)CN(Cc3ccc(CNC(C)=O)cc3OC)C2=O)ccc1OC (stereo not drawn) [SC0189],7
14,COc1cc(CC(=O)N2CCCC2)ccc1CN1CC(C)CN(c2ccc(OC)c(OCCCC3CC3)c2)C1=O (stereo not drawn) [SC0191],7.3
15,COc1cc(CC(=O)O)ccc1CN1C(=O)N(c2ccc(OC)c(OCCCC3CC3)c2)CC[C@@H]1C [SC0192],7.8
16,CCCCCOc1cc(N2C[C@H](C)CN(Cc3ccc(CC(=O)N4CCOCC4)cc3OC)C2=O)ccc1OC [SC0193],8.3
17,COc1cc(CC(=O)N(C)C)ccc1CN1CC(C)CN(c2ccc(OC)c(OCCCC3CC3)c2)C1=O (stereo not drawn) [SC0194],8.5
18,CCCCCOc1cc(N2CC[C@H](C)N(Cc3cccc(OC)c3O)C2=O)ccc1OC [SC0195],8.5
19,COc1cc(CCN2CC3(COC3)C2)ccc1CN1C(=O)N(c2ccc(OC)c(OCCCC3CC3)c2)CC[C@@H]1C [SC0196],8.6
20,CCCCCOc1cc(N2CC[C@H](C)N(Cc3ccc(CCO)cc3OC)C2=O)ccc1OC [SC0197],9.1
21,CCCCCOc1cc(N2CC(C)CN(Cc3ccc(CNC(C)=O)cc3OC)C2=O)ccc1OC (stereo not drawn) [SC0198],9.7
22,CCCCCOc1cc(N2CC(C(N)=O)CN(Cc3ccc(CNC(C)=O)cc3OC)C2=O)ccc1OC (stereo not drawn) [SC0199],9.8
23,CCCCCOc1cc(N2CC(C)CN(Cc3ccc(CNC(=O)OC)cc3OC)C2=O)ccc1OC (stereo not drawn) [SC0200],9.9
24,CCCCCOc1cc(N2C[C@@H](C)CN(Cc3ccc(CC(=O)N4CCOCC4)cc3OC)C2=O)ccc1OC [SC0201],10

row,Compound,IC50 [nM]
1,COc1cc(CC(=O)N(C)[C@@H]2CCN(C(=O)OC(C)(C)C)C2)ccc1CN1C(=O)N(c2ccc(OC)c(OCCCC3CC3)c2)CC[C@@H]1C [SC0202],10.1
2,COc1ccc(N2CC[C@H](C)N(Cc3cccc4c3ccn4CC(=O)N(C)C)C2=O)cc1OCCCCC1CC1 [SC0203],10.2
3,COc1ccc(N2CC[C@H](C)N(Cc3cccc4c3ccn4CC(=O)N(C)C)C2=O)cc1OCCCC1CCC1 [SC0205],11.4
4,CCCCCOc1cc(N2C[C@@H](CO)CN(Cc3ccc(CC(=O)N(C)C)cc3OC)C2=O)ccc1OC [SC0206],11.7
5,CCCCCOc1cc(N2C[C@H](C)CN(Cc3ccc(CC(=O)N4CCCC4)cc3OC)C2=O)ccc1OC [SC0207],11.8
6,COc1ccc(N2CC[C@H](C)N(Cc3ccnc4c3ccn4CC(=O)N(C)C)C2=O)cc1OCCCC1CC1 [SC0208],12.6
7,CCCCCOc1cc(N2C[C@H](C)CN(Cc3ccc(CC(=O)N(C)C)cc3OC)C2=O)ccc1OC [SC0209],12.6
8,CCCCCOc1cc(N2C[C@@H](C)CN(Cc3ccc(CC(=O)N(C)C)cc3OC)C2=O)ccc1OC [SC0210],15.1
9,CCCCCOc1cc(N2CC[C@@H](C)N(Cc3cccc4c3ccn4CC(=O)OCC)C2=O)ccc1OC [SC0211],15.6
10,CCCCCOc1cc(N2C[C@@H](C)CN(Cc3ccc(CC(=O)N4CCCC4)cc3OC)C2=O)ccc1OC [SC0212],16.5
11,CCCCCOc1cc(N2C[C@@H](C(N)=O)CN(Cc3cc(F)ccc3OC)C2=O)ccc1OC [SC0213],18.2
12,CCCCCOc1cc(N2CC[C@@H](C)N(Cc3cccc4[nH]ccc34)C2=O)ccc1OC [SC0214],18.2
13,CCCCCOc1cc(N2C[C@H](C(N)=O)CN(Cc3cc(F)ccc3OC)C2=O)ccc1OC [SC0215],18.6
14,COc1cc(CC(=O)N[C@H]2CCN(C(=O)OC(C)(C)C)C2)ccc1CN1C(=O)N(c2ccc(OC)c(OCCCC3CC3)c2)CC[C@@H]1C [SC0216],19.6
15,CCCCCOc1cc(N2C[C@H](C(=O)NC)CN(Cc3cc(F)ccc3OC)C2=O)ccc1OC [SC0217],25.3
16,CCCCCOc1cc(N2CC[C@H](C)N(Cc3cccc4c3cc(C)n4CC(=O)N(C)C)C2=O)ccc1OC [SC0218],34.4
17,CCCCCOc1cc(N2CC[C@H](C)N(Cc3ccnc4[nH]ccc34)C2=O)ccc1OC [SC0219],40
18,CCCCCOc1cc(N2CC(C)(C)CN(Cc3ccc(CC(=O)N(C)C)cc3OC)C2=O)ccc1OC [SC0220],42.1
19,COc1cc(CC(=O)O)ccc1CN1CC(C)CN(c2ccc(OC)c(OCCCC3CC3)c2)C1=O (stereo not drawn) [SC0221],54.4
20,CCCCCOc1cc(N2CC(CO)CN(Cc3ccc(CC(=O)O)cc3OC)C2=O)ccc1OC (stereo not drawn) [SC0222],74.1
21,CCCCCOc1cc(N2C[C@@H](C(=O)NC)CN(Cc3cc(F)ccc3OC)C2=O)ccc1OC [SC0223],96.9
22,CCCCCOc1cc(N2CC(CO)CN(Cc3ccc(C#N)cc3OC)C2=O)ccc1OC (stereo not drawn) [SC0224],98.5
23,COc1ccc(N2CC[C@H](C)N(Cc3cccc4c3ccn4S(=O)(=O)c3ccc(C)cc3)C2=O)cc1OCCCC1CC1 [SC0225],110
24,C=C1CN(Cc2ccc(C#N)cc2OC)C(=O)N(c2ccc(OC)c(OCCCCC)c2)C1 [SC0226],132
